Test results reported in patent publication US20220315534A1, “BETA ADRENERGIC AGONIST AND METHODS OF USING THE SAME” (Curasen Therapeutics, Inc., priority 2019, published 2022).
Where two headings read alike, the source gives them in different places.

Tests used:
[1] = molecular target: T1, β2-adrenergic receptor (B2-AR) (Homo sapiens, UniProt P07550); assay: cAMP Gs dynamic HTRF assay, cells expressing β2-adrenergic receptor; type: cell-based
T1 construct: expressed in transfected cells
Description: (§1) cAMP homogeneous time-resolved fluorescence (HTRF): experimental methods. Compound efficacy is determined using the cAMP Gs dynamic HTRF assay (Cisbio, catalog #62AM4PEC) largely following the manufacturer's instructions, also detailed below.
(§2) Standard serial dilution curves are 10-point, 5-fold dilutions starting from a highest concentration of 10 μM. […] Assay plates are centrifuged at 500×g for 10 seconds. Compounds and IBMX are prepared at 2× final dose to compensate for addition of cells.
(§3) Cell preparation: 1× stimulation buffer, washing PBS (Dulbecco's phosphate-buffered saline, —Mg —Ca; Caisson Labs, catalog #PBL01), assay PBS (Dulbecco's phosphate-buffered saline, +Mg, +Ca; Caisson Labs, catalog #PBL02) and Versene (0.02% EDTA disodium salt solution in PBS without calcium or magnesium; Caisson Labs, catalog #EDL01) are pre-warmed to 37° C. Cells expressing beta-adrenergic receptor were washed in washing PBS to remove growth medium and then released from the surface by incubating with Versene for 5-10 minutes at 37° C. Cells are harvested using assay PBS, counted manually by hemocytometer or by an automated cell counter, pelleted by centrifugation (200×g, 5 minutes) and resuspended in 37° C. 1× stimulation buffer to a final density of […]. 5 μL of the suspended cell solution (7500 cell total) are added to all wells of the 384 well assay plate, the assay plate was covered with an Axygen® plate seal (Corning PCR-SP) and incubated in a humidified 37° C. environment supplemented with 5% CO2 for 30 minutes.
(§4) HTRF reagent addition, reading and data analysis: After 30 minutes of cell stimulation with test compound, the assay plates are centrifuged at 500×g for 10 seconds, and incubation was stopped with the addition of 5 μL cAMP-D2 acceptor, diluted 1:21 in detection and lysis buffer 2 (Cisbio 62CL2FDF) was added to all cells. Subsequently, 5 μL Anti-cAMP-Eu Donor, diluted 1:21 in detection and lysis buffer 2, was added to cells. Plates were sealed and reactions gently ‘vortexed’ at 900 rpm on a Heidolph Titramax 1000 for at least 30 minutes at room temperature. Plates are centrifuged again at 500×g for 10 seconds, and HTRF was measured using a Tecan Spark plate reader at 50 flashes per well. […] Potency estimates (EC50 and pEC50) are derived from the four-parameter nonlinear regression of the concentration-effect curve and an estimate of relative efficacy is determined by comparing the magnitude of the test compound HTRF signal window (min-max dose) with the signal window of the full agonist control, isoproterenol.

[2] = molecular target: T2, β1-adrenergic receptor (B1-AR) (Homo sapiens, UniProt P08588); assay: cAMP Gs dynamic HTRF assay, cells expressing β1-adrenergic receptor; type: cell-based
T2 construct: expressed in transfected cells
T2 sequence (P08588 whole entry): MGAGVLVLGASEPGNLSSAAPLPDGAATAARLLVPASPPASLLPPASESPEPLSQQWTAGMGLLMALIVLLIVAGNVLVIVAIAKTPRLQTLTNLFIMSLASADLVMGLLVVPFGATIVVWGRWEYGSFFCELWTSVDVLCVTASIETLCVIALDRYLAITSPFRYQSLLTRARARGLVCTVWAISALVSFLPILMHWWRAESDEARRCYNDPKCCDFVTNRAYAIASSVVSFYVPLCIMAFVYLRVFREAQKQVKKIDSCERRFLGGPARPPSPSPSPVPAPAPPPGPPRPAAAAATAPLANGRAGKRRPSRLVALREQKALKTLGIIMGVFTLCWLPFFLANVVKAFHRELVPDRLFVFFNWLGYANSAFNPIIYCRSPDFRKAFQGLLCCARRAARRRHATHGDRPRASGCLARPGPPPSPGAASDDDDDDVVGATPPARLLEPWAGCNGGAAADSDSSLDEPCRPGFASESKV
Description: as §1, §2, §3, §4

[3] = CHO-K1 (HitHunter) cells, read-out: Average pEC50 [Receptor subtype: B2-AR, Cell type: CHO-K1 (HitHunter)] (converted)
[4] = CHO-K1 (HitHunter) cells, read-out: Average pEC50 [Receptor subtype: B1-AR, Cell type: CHO-K1 (HitHunter)] (converted)

T1 sequence (P07550 whole entry): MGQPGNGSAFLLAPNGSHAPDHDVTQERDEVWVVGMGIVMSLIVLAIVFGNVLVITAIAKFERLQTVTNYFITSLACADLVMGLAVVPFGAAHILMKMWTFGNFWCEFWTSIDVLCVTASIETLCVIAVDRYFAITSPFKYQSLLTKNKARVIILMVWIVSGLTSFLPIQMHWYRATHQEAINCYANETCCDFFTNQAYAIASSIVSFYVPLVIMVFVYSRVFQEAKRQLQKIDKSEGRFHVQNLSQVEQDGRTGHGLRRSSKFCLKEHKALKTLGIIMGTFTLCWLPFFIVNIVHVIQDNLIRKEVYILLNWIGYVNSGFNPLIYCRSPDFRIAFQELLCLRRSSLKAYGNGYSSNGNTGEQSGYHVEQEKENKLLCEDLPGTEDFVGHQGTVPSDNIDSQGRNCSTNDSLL

Compound | EC50 [1, 3] | EC50 [2, 4] | EC50 ([1]; Table 2, cAMP HTRF, read-out: β2 EC50) | EC50 ([2]; Table 2, cAMP HTRF, read-out: β1 EC50)
CC(C)(C)NC[C@H](O)c1ccc(F)c2[nH]c(=O)ccc12 [Compound 04-4] | < 10 nM | < 10 nM |  | 
CC(C)(C)NC[C@H](O)c1ccc2[nH]c3ccccc3c2c1 [Compound 04-54] | 100 to 1000 nM | > 1000 nM |  | 
CC(C)(C)NC[C@H](O)c1cccc2ccc(C(F)(F)F)nc12 [Compound 04-85] | < 10 nM | < 10 nM |  | 
COc1cc([C@@H](O)CNC(C)(C)C)c2cn[nH]c2c1 [Compound 04-154] | < 10 nM | 100 to 1000 nM |  | 
CC(C)(C)NC[C@@H](O)c1cccc2ccc(C#N)nc12 [Compound 04-71] | 100 to 1000 nM | 100 to 1000 nM |  | 
CC(C)(C)NC[C@H](O)c1ccc2nn[nH]c2c1 [Compound 04-115] | 10 to 100 nM | 100 to 1000 nM |  | 
Cc1nc(N)c(Cl)cc1[C@@H](O)CNC(C)(C)C [Compound 02-14] | < 10 nM | 10 to 100 nM |  | 
CC(C)(C)NC[C@H](O)c1cnc2[nH]cnc2c1 [Compound 04-157] | 10 to 100 nM | 100 to 1000 nM |  | 
CC(C)(C)NC[C@H](O)c1cccc2c(C(F)(F)F)ccnc12 [Compound 04-69] | 100 to 1000 nM | 10 to 100 nM |  | 
CC(C)(C)NC[C@H](O)c1cc(F)c2[nH]cnc2c1 [Compound 04-156] | < 10 nM | 10 to 100 nM |  | 
CC(C)(C)NC[C@H](O)c1ccc2ncccc2c1 [Compound 04-38] | < 10 nM | 100 to 1000 nM |  | 
CC(C)(C)NC[C@H](O)c1cccc2ccc(C#N)nc12 [Compound 04-72] | < 10 nM | < 10 nM |  | 
Cc1ccc([C@@H](O)CNC(C)(C)C)c2cn[nH]c12 [Compound 04-130] | < 10 nM | < 10 nM |  | 
CC(C)NC[C@H](O)c1cc(F)cc2[nH]ncc12 [Compound 04-149] | < 10 nM | < 10 nM |  | 
Cn1ncc2c([C@@H](O)CNC(C)(C)C)cccc21 [Compound 04-27] | 10 to 100 nM | < 10 nM |  | 
O[C@@H](CNC1(C(F)(F)F)CC1)c1cccc2cccnc12 [Compound 04-67] | > 1000 nM | > 1000 nM |  | 
CC(C)(C)NC[C@H](O)c1cnc(N)c(Cl)c1 [Compound 02-1] | 10 to 100 nM | 100 to 1000 nM | 10 to 100 nM | 100 to 1000 nM
CC(C)(C)NC[C@H](O)c1cccc2[nH]c(=O)ccc12 [Compound 04-1, (R)-5-(2-(tert-butylamino)-1-hydroxyethyl)quinolin-2(1H)-one] | < 10 nM | < 10 nM |  | 
CC(C)(C)NC[C@H](O)c1ccc(C(F)(F)F)c2cccnc12 [Compound 04-82] | < 10 nM | < 10 nM |  | 
Cc1c[nH]c2nccc([C@@H](O)CNC(C)(C)C)c12 [Compound 04-114] | > 1000 nM | > 1000 nM |  | 
CC(C)(C)NC[C@H](O)c1nccc2[nH]ncc12 [Compound 04-144, (S)-2-(tert-butylamino)-1-(1H-pyrazolo[4,3-c]pyridin-4-yl)ethan-1-ol] | > 1000 nM | > 1000 nM |  | 
Cc1cc(C(O)CNC(C)(C)C)nnc1N (centres unmarked) [Compound 02-3] | 100 to 1000 nM | > 1000 nM |  | 
CC(C)(C)NC[C@H](O)c1c(F)ccc2cccnc12 [Compound 04-90] | > 1000 nM | 100 to 1000 nM |  | 
CC(C)(C)NC[C@H](O)c1cccc2c1C1(CC1)C(=O)N2 [Compound 04-103] | 100 to 1000 nM | 100 to 1000 nM |  | 
CC(C)(C)NC[C@H](O)c1cccc2[nH]c3ncccc3c12 [Compound 04-131] | < 10 nM | < 10 nM |  | 
CC(C)(C)NC[C@H](O)c1cccc2[nH]c(=O)oc12 [Compound 04-116] | < 10 nM | < 10 nM |  | 
CC(C)CNC[C@H](O)c1ccc2nc[nH]c2c1 [Compound 04-140] | 100 to 1000 nM | > 1000 nM |  | 
CC(C)(C)NC[C@H](O)c1ccc2cccc(F)c2n1 [Compound 04-41] | < 10 nM | < 10 nM |  | 
CC(C)(C)NC[C@H](O)c1ccc2c(n1)CCC2 [Compound 04-9] | 10 to 100 nM | 100 to 1000 nM |  | 
CC(C)(C)NC[C@H](O)c1ccc2c(n1)NCCO2 [Compound 04-10] | 10 to 100 nM | 10 to 100 nM |  | 
